From US8343959B2, “N-phenyl-(piperazinyl or homopiperazinyl)-benzenesulfonamide or benzenesulfonyl-phenyl-(piperazine or homopiperazine) compounds suitable for treating disorders that respond to modulation of the serotonin 5-HT6 receptor” (Abbott GmbH & Co. KG, priority 2009, dated 2013)
Where a name gives a salt, the structure may show the parent alone.

biological target: T1, h-5-HT6 receptor (Homo sapiens, UniProt P50406); assay: 5-HT6 receptor binding assay (displacement of [3H]-LSD); conditions: membranes of HEK293 cells expressing h-5-HT6 receptor, 1 nM [3H]-LSD; read-out: Ki (5HT6)
T1 construct: expressed in transfected cells
Procedure: Displacement of Radioligands Binding to The Following Cloned Human Receptors
Cells from stable clonal cell lines expressing the corresponding receptor (5-HT6, α1-adrenergic, dopamine D2 or histamine H1 receptors) were washed with PBS (w/o Ca^++, Mg^++) and harvested in PBS with 0.02% EDTA. The cells were collected by centrifugation at 500 g for 10 min. at 4° C., washed with PBS and centrifuged (500 g, 10 min. 4° C.). The pellets were stored at −80° C. until use. For membrane preparation, the thawed cell pellet was resuspended in ice-cold sucrose buffer (0.25 M sucrose, 10 mM Hepes (pH 7.4), 1 mM Phenylmethylsulfonyl fluoride (PMSF) in DMSO, 5 μg/ml Pepstatin-A, 3 mM EDTA, 0.025% Bacitracin) and homogenized with a Branson Sonifier W-250 (Settings: Timer 4; Output Control 3; Duty Cycle constant; 2 to 3 cycles). Cell disruption was checked with the aid of a microscope. Remaining unbroken cells were pelleted at 1.000 g for 10 min. at 4° C. The sucrose buffer supernatant was then centrifuged at 60.000 g for 1 h at 4° C. (Beckman Ultrazentrifuge XL 80). The pellet was resuspended in 30 ml ice-cold Tris buffer (20 mM TRIS (pH 7.4), 5 μg/ml Pepstatin A, 0.1 mM PMSF, 3 mM EDTA) by pipetting through a 10 ml serological pipet and centrifuged for 1 h at 4° C. at 60.000 g. A final resuspension was performed in a small volume of ice-cold Tris buffer (see above) by pressing through a serological pipet followed by ultrasonic treatment with a Branson Sonifier W-250 (Settings: Timer 1; Output Control 3; Duty Cycle constant; 1 cycle). Protein concentration was determined (BCA-Kit; Pierce) and aliquots stored at −80° C. or in liquid nitrogen for long-term storage.
All receptor binding experiments were carried out in the corresponding assay buffer in a total volume of 200 μl in the presence of various concentrations of test compound (10^−5 M to 10^−9 M, tenfold serial dilution, duplicate determinations). The assays were terminated by filtration on polyethylenimine (PEI 0.1% or 0.3%) presoaked Packard Unifilter Plates (GF/C or GF/B) with a Tomtec Machin U 96 well-plate harvester. After the plates had been dried for 2 h at 55° C. in a drying chamber scintillation cocktail (BetaPlate Scint; PerkinElmer) was added. Radioactivity was measured in a Microbeta Trilux two hours after the addition of the scintillation mixture. Data derived from liquid scintillation counting were analysed by iterative non-linear regression analysis with the use of the Statistical Analysis System (SAS): a program similar to “LIGAND” as described by Munson and Rodbard (Analytical Biochemistry 107, 220-239 (1980).
HEK293 cells stably expressing the h-5-HT6 receptor (NCBI Reference Sequence XM 001435) were cultured in RPMI1640 medium supplemented with 25 mM HEPES, 10% fetal calf serum and 1-2 mM glutamine. The membrane preparation was performed as described in section 1. […] Non-specific binding was defined with 1 μM methiothepin. The binding reaction was carried out for 3.5 h at room temperature. During the incubation, the plates were shaken on a plate shaker at 100 rpm and terminated by filtration on Packard Unifilter GF/C (0.1% PEI) plates, followed by 2 wash cycles with ice-cold 50 mM Tris-HCl, 5 mM CaCl2.
Data derived from liquid scintillation counting were analyzed by iterative non-linear regression analysis with the use of the Statistical Analysis System (SAS): a program similar to “LIGAND” as described by Munson and Rodbard (Anal. Biochem. 1980, 107, 220-239). Fitting was performed according to formulae described by Feldman (Anal. Biochem. 1972, 48, 317-338). IC50, nH and Ki values were expressed as geometrical mean.

T1 sequence (P50406 whole entry): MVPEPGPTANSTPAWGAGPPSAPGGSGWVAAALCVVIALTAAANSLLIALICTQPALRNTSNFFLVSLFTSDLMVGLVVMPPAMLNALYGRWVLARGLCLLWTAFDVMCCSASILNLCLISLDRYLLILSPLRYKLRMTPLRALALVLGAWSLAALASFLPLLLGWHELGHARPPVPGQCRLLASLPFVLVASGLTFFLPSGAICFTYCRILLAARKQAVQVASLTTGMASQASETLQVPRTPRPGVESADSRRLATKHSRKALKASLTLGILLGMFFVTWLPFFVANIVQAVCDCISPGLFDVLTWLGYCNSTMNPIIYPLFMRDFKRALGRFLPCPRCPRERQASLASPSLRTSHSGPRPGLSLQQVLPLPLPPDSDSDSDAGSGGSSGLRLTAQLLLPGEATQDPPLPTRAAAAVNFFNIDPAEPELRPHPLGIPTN

**Q.** With `COc1ccc(S(=O)(=O)Nc2cc(C)ccc2OC(F)F)cc1N1CCN(C)CC1` [Example 67, N-(2-Difluoromethoxy-5-methyl-phenyl)-4-methoxy-3-(4-methyl-piperazin-1-yl)-benzenesulfonamide hydrochloride] as the compound, how does the Ki read?
**A.** Its Ki is < 10 nM.

**Q.** How did the Ki turn out when `O=S(=O)(Nc1cccc(OC(F)F)c1)c1cccc(N2CCNCC2)c1` [Example 68, N-(3-Difluoromethoxy-phenyl)-3-piperazin-1-yl-benzenesulfonamide hydrochloride] was run?
**A.** The Ki was < 10 nM.

**Q.** With `COc1ccc(S(=O)(=O)Nc2ccc(F)cc2OC(F)F)cc1N1CCN(C)CC1` [Example 69, N-(2-Difluoromethoxy-4-fluoro-phenyl)-4-methoxy-3-(4-methyl-piperazin-1-yl)-benzenesulfonamide hydrochloride] as the compound, how does the Ki read?
**A.** Its Ki is < 10 nM.

**Q.** For `COc1ccc(S(=O)(=O)Nc2ccc(C)cc2OC(F)F)cc1N1CCN(C)CC1` [Example 70, N-(2-Difluoromethoxy-4-methyl-phenyl)-4-methoxy-3-(4-methyl-piperazin-1-yl)-benzenesulfonamide hydrochloride], which Ki is on record?
**A.** Its Ki is < 10 nM.

**Q.** With `Cc1ccc(S(=O)(=O)Nc2cc(Cl)ccc2OC(F)F)cc1N1CCNCC1` [Example 71, N-(5-Chloro-2-difluoromethoxy-phenyl)-4-methyl-3-piperazin-1-yl-benzenesulfonamide hydrochloride] as the compound, how does the Ki read?
**A.** Its Ki is < 10 nM.

**Q.** How did the Ki turn out when `COc1ccc(S(=O)(=O)Nc2cc(C)ccc2OC(F)F)cc1N1CCNCC1` [Example 72, N-(2-Difluoromethoxy-5-methyl-phenyl)-4-methoxy-3-piperazin-1-yl-benzenesulfonamide hydrochloride] was run?
**A.** Its Ki is < 10 nM.

**Q.** Which Ki does the source give for `COc1ccc(S(=O)(=O)Nc2ccc(C)cc2OC(F)F)cc1N1CCNCC1` [Example 73, N-(2-Difluoromethoxy-4-methyl-phenyl)-4-methoxy-3-piperazin-1-yl-benzenesulfonamide hydrochloride] here?
**A.** Its Ki is < 10 nM.

**Q.** `Cc1ccc(S(=O)(=O)Nc2ccc(F)cc2OC(F)F)cc1N1CCNCC1` [Example 74, N-(2-Difluoromethoxy-4-fluoro-phenyl)-4-methyl-3-piperazin-1-yl-benzenesulfonamide hydrochloride] was tested. Which Ki did it give?
**A.** Its Ki is < 50 nM.

**Q.** How did the Ki turn out when `Cc1ccc(NS(=O)(=O)c2ccc(C)c(N3CCN(C)CC3)c2)cc1OC(F)F` [Example 75, N-(3-Difluoromethoxy-4-methyl-phenyl)-4-methyl-3-(4-methyl-piperazin-1-yl)-benzenesulfonamide hydrochloride] was run?
**A.** The Ki was < 50 nM.

**Q.** Which Ki does the source give for `COc1cc(NS(=O)(=O)c2ccc(C)c(N3CCNCC3)c2)ccc1OC(F)F` [Example 76, N-(4-Difluoromethoxy-3-methoxy-phenyl)-4-methyl-3-piperazin-1-yl-benzenesulfonamide] here?
**A.** The Ki was < 50 nM.

**Q.** For `COc1ccc(OC(F)F)cc1NS(=O)(=O)c1ccc(C)c(N2CCN(C)CC2)c1` [Example 77, N-(5-Difluoromethoxy-2-methoxy-phenyl)-4-methyl-3-(4-methyl-piperazin-1-yl)-benzenesulfonamide trifluoroacetate], which Ki is on record?
**A.** Its Ki is < 50 nM.

**Q.** How did the Ki turn out when `COc1ccc(OC(F)F)c(NS(=O)(=O)c2ccc(C)c(N3CCN(C)CC3)c2)c1` [Example 78, N-(2-Difluoromethoxy-5-methoxy-phenyl)-4-methyl-3-(4-methyl-piperazin-1-yl)-benzenesulfonamide trifluoroacetate] was run?
**A.** Its Ki is < 50 nM.

**Q.** For `Cc1ccc(S(=O)(=O)Nc2ccc(F)cc2OC(F)F)cc1N1CCN(C)CC1` [Example 79, N-(2-Difluoromethoxy-4-fluoro-phenyl)-4-methyl-3-(4-methyl-piperazin-1-yl)-benzenesulfonamide trifluoroacetate], which Ki is on record?
**A.** The Ki was < 50 nM.

**Q.** For `COc1ccc(OC(F)F)cc1NS(=O)(=O)c1ccc(C)c(N2CCNCC2)c1` [Example 80, N-(5-Difluoromethoxy-2-methoxy-phenyl)-4-methyl-3-piperazin-1-yl-benzenesulfonamide trifluoroacetate], which Ki is on record?
**A.** Its Ki is < 50 nM.

**Q.** How did the Ki turn out when `COc1ccc(OC(F)F)c(NS(=O)(=O)c2ccc(C)c(N3CCNCC3)c2)c1` [Example 81, N-(2-Difluoromethoxy-5-methoxy-phenyl)-4-methyl-3-piperazin-1-yl-benzenesulfonamide hydrochloride] was run?
**A.** Its Ki is < 50 nM.

**Q.** For `COc1ccc(S(=O)(=O)Nc2ccc(F)cc2OC(F)F)cc1N1CCNCC1` [Example 82, N-(2-Difluoromethoxy-4-fluoro-phenyl)-4-methoxy-3-piperazin-1-yl-benzenesulfonamide hydrochloride], which Ki is on record?
**A.** The Ki was < 10 nM.

**Q.** `COc1ccc(S(=O)(=O)Nc2ccc3c(c2)OC(F)(F)O3)cc1N1CCNCC1` [Example 83, N-(2,2-Difluoro-benzo[1,3]dioxol-5-yl)-4-methoxy-3-piperazin-1-yl-benzenesulfonamide hydrochloride] was tested. Which Ki did it give?
**A.** Its Ki is < 10 nM.

**Q.** Which Ki does the source give for `Cc1ccc(S(=O)(=O)Nc2ccc3c(c2)OC(F)(F)O3)cc1N1CCNCC1` [Example 84, N-(2,2-Difluoro-benzo[1,3]dioxol-5-yl)-4-methyl-3-piperazin-1-yl-benzenesulfonamide hydrochloride] here?
**A.** The Ki was < 50 nM.

**Q.** How did the Ki turn out when `COc1ccc(NS(=O)(=O)c2ccc(C)c(N3CCNCC3)c2)cc1OC(F)F` [Example 85, N-(3-Difluoromethoxy-4-methoxy-phenyl)-4-methyl-3-piperazin-1-yl-benzenesulfonamide hydrochloride] was run?
**A.** The Ki was < 500 nM.

**Q.** For `COc1ccc(NS(=O)(=O)c2ccc(C)c(N3CCN(C)CC3)c2)cc1OC(F)F` [Example 86, N-(3-Difluoromethoxy-4-methyoxy-phenyl)-4-methyl-3-(4-methyl-piperazin-1-yl)-benzenesulfonamide hydrochloride], which Ki is on record?
**A.** Its Ki is < 500 nM.

**Q.** Which Ki does the source give for `Cc1cc(NS(=O)(=O)c2ccc(C)c(N3CCN(C)CC3)c2)ccc1OC(F)F` [Example 87, N-(4-Difluoromethoxy-3-methyl-phenyl)-4-methyl-3-(4-methyl-piperazin-1-yl)-benzenesulfonamide hydrochloride] here?
**A.** The Ki was < 50 nM.

**Q.** How did the Ki turn out when `Cc1ccc(S(=O)(=O)Nc2ccc(OC(F)F)cc2)cc1N1CCN(C)CC1` [Example 88, N-(4-Difluoromethoxy-phenyl)-4-methyl-3-(4-methyl-piperazin-1-yl)-benzenesulfonamide hydrochloride] was run?
**A.** Its Ki is < 500 nM.

**Q.** Which Ki does the source give for `COc1ccc(S(=O)(=O)Nc2ccc(C)c(OC(F)F)c2)cc1N1CCN(C)CC1` [Example 89, N-(3-Difluoromethoxy-4-methyl-phenyl)-4-methoxy-3-(4-methyl-piperazin-1-yl)-benzenesulfonamide hydrochloride] here?
**A.** The Ki was < 10 nM.

**Q.** Which Ki does the source give for `COc1cc(NS(=O)(=O)c2ccc(OC)c(N3CCN(C)CC3)c2)ccc1OC(F)F` [Example 90, N-(4-Difluoromethoxy-3-methoxy-phenyl)-4-methoxy-3-(4-methyl-piperazin-1-yl)-benzenesulfonamide] here?
**A.** The Ki was < 50 nM.

**Q.** With `Cc1ccc(NS(=O)(=O)c2ccc(C)c(N3CCN(C)CC3)c2)c(OC(F)F)c1` [Example 91, N-(2-Difluoromethoxy-4-methyl-phenyl)-4-methyl-3-(4-methyl-piperazin-1-yl)-benzenesulfonamide hydrochloride] as the compound, how does the Ki read?
**A.** The Ki was < 50 nM.

**Q.** With `Cc1ccc(OC(F)F)c(NS(=O)(=O)c2ccc(C)c(N3CCN(C)CC3)c2)c1` [Example 92, N-(2-Difluoromethoxy-5-methyl-phenyl)-4-methyl-3-(4-methyl-piperazin-1-yl)-benzenesulfonamide hydrochloride] as the compound, how does the Ki read?
**A.** Its Ki is < 10 nM.

**Q.** Which Ki does the source give for `COc1cc(NS(=O)(=O)c2ccc(OC)c(N3CCNCC3)c2)ccc1OC(F)F` [Example 93, N-(4-Difluoromethoxy-3-methoxy-phenyl)-4-methoxy-3-piperazin-1-yl-benzenesulfonamide hydrochloride] here?
**A.** The Ki was < 10 nM.

**Q.** With `Cc1ccc(S(=O)(=O)Nc2cccc(OC(F)F)c2)cc1N1CCN(C)CC1` [Example 94, N-(3-Difluoromethoxy-phenyl)-4-methyl-3-(4-methyl-piperazin-1-yl)-benzenesulfonamide hydrochloride] as the compound, how does the Ki read?
**A.** Its Ki is < 10 nM.
